Measurements published in patent publication US20140073611A1, “METHODS FOR DRUG SCREEN USING ZEBRAFISH MODEL AND THE COMPOUNDS SCREENED THEREFROM” (National Taiwan University, priority 2012, published 2014).
Structures can show the parent of a compound that is named as a salt.

What was measured:
[1] = test system: lumican knockdown zebrafish (zLum-MO); experiment: Drug screen in lumican (zLum-MO) knockdown zebrafish: big eye ratio / scleral coat enlargement; format: in vivo; conditions: for outcome of the screen of about 30 drugs: lumican knockdown zebrafish model; for % of scleral enlargement in experimental group: zLum-MO knockdown model, vs. 30% of scleral enlargement in control group
Experimental: The term “big eye” denotes that an eye with a value of the axial length of the retinal pigmented epithelium layer divided by the axial length of the scleral coat is less than 0.7.
According to the disclosure, the knockdown zebrafish are exposed to a test compound at the optic cup formation stage thereof. Generally, at around 24 hours after fertilization, the optic cup of zebrafish is formed. The knockdown zebrafish can be exposed to the test compound at the optic cup formation stage. After contacting the knockdown zebrafish with the test compound, the test compound, if it is a potential candidate, may start to activate the expression of lumican and collagen fibrillogenesis, thereby decreasing the enlargement of eyeball and treating and/or preventing myopia and/or keratoconus disease. Retina lenses are established around 48 hours after fertilization, and the sclera and cornea are established around 72 hours after fertilization. At sclera and cornea establishment stage, the zebrafish are collected.
(§1) Big eye in a zebrafish is an indicator of myopia. As used herein, a “big eye” refers to an eye with an enlarged axial length of eyeball and denotes the value of the axial length of the retinal pigmented epithelium layer divided by the axial length of the scleral coat less than 0.7. The axial length of a retinal pigmented epithelium layer and the axial length of a scleral coat can be measured by any method known in the art—for example, dissecting microscopy.
The test compound can be identified as a candidate compound affecting the expression of lumican and/or collagen fibrillogenesis and/or regulation of eyeball size, and/or treating and/or preventing myopia and/or keratoconus disease if the ratio of the number of big eyes decreases relative to the total number of eyes in zebrafish or that of big eyes in control zebrafish that is not contacted with the test compound. […] Preferably, the ratio is less than 15%. More preferably, the ratio decreases to about 0% to about 30%, about 0% to about 25%, about 0% to about 20%, about 0% to about 15%, about 0% to about 10%, about 1% to about 30%, about 1% to about 25%, about 1% to about 20% or about 1% to about 15%.
Zebrafish are raised and maintained according to previously established protocols (Soules K A, Link B A. Morphogenesis of the anterior segment in the zebrafish eye. BMC Dev Biol 2005; 5:12). All experiments are performed on Tuebingen AB zebrafish raised at 28° C. on a 14-h light and 10-h dark cycle and maintained using standard methods. Embryos are staged according to morphological criteria (somite number) (Kimmel C B, Ballard W W, Kimmel S R, et al. Stages of embryonic development of the zebrafish. Dev Dyn 1995; 203(3):253-310) and timed in hours after fertilization. Embryos are generated by natural pair-wise mating, as described in the zebrafish handbook (Westerfield M. The Zebrafish Book; A Guide for the Laboratory Use of Zebrafish (Brachydanio rerio). University of Oregon Press, Eugene, 2nd edition 300P., 1993). For each mating, 4±5 pairs are set up and, on an average; 100±150 embryos per pair are generated. The zebrafish embryo is optically transparent, making it possible to detect functional and morphological changes in internal organs without having to kill or dissect the organism. Chorions are removed manually with Dumont Watchmaker's Forceps No. 5.
Morpholinos are chemically modified antisense oligonucleotides that can be designed to hybridize to the translation-initiation or splicing acceptor/donor sites of specific mRNAs (Nasevicius A, Ekker S C. Effective targeted gene ‘knockdown’ in zebrafish. Nat Genet 2000; 26(2):216-20). A morpholino-antisense oligonucleotide (Gene Tools, Philomath, Oreg.) are designed and synthesized to target the 5′-untranslated and/or flanking regions, including the translation start codon of the respective genes. The MO sequence is designed as follows: zLum-MO, 5′-[…]-3′.

zLum-MO-injected fish [2] = experiment: Eye morphometry and phenotype of zLum-MO-injected fish after muscarinic antagonist treatment (FIGS. 7-8); format: in vivo, zebrafish; conditions: for diameter of the scleral coat / excessive axial elongation: zLum-MO-injected fish at 7 dpf, FIG. 7(C); for diameter of the scleral coat / excessive axial elongation / ratio of RPE/scleral coat (%): 0.5% atropine, 0.25% pirenzepine; for diameter of the scleral coat / excessive axial elongation / ratio of RPE/scleral coat (%) / ocular enlargement (phenotype): 0.01% methoctramine; for ratio of RPE/scleral coat (%): zLum-MO-injected fish, FIG. 7(D); for ocular enlargement (phenotype): zLum-MO-injected larvae at 7 dpf, 0.5% atropine for 2 days, 0.25% pirenzepine for 2 days, FIG. 8
Source text: FIGS. 7(A)-(D) depict a zebrafish drug screen assay. FIGS. 7(A) and (B) illustrate and define the outer margin of the retinal pigmented epithelium layer (RPE(red color)) and the diameter of the scleral coat (D(green color)) in zebrafish.
as §1
Morpholinos are chemically modified antisense oligonucleotides that can be designed to hybridize to the translation-initiation or splicing acceptor/donor sites of specific mRNAs (Nasevicius A, Ekker S C. Effective targeted gene ‘knockdown’ in zebrafish. Nat Genet 2000; 26(2):216-20). A morpholino-antisense oligonucleotide (Gene Tools, Philomath, Oreg.) are designed and synthesized to target the 5′-untranslated and/or flanking regions, including the translation start codon of the respective genes. The MO sequence is designed as follows: zLum-MO, 5′-[…]-3′. This oligonucleotide complemented the sequence from −8 through +17 with respect to the translation initiation codon. A random sequence MO (RS-MO) serves as a control for zLum-MO: 5′-[…]-3′. This RS-MO is obtained from Gene Tools as a standard control oligonucleotide with no target specificity (Yeh L K, Liu C Y, Kao W W, et al. Knockdown of zebrafish lumican gene (zlum) causes scleral thinning and increased size of scleral coats. J Biol Chem 2010; 285(36):28141-55).
(§2) Morpholino is resuspended in sterile water to a concentration of 1 mmol/L and diluted to […] with sterile water. The morpholinos are injected at the single-cell stage in a volume of 0.0023 nL. Here, we identified the effects of morpholinos on protein levels are assayed with western blotting from injected embryos with GAPDH as a control.

zLum-MO-injected fish [3] = conditions: in vivo zebrafish larvae assays; prior reference Yeh et al., J Biol Chem 2010; cited from earlier work
[4] = test system: lumican, collagen 1a1, TGF-beta, MMP2 and TIMP2; experiment: Expression patterns in atropine-treated zLum knockdown morphant (FIG. 9); format: in vivo, zebrafish
Experimental: FIG. 9 depicts atropine rescues zLum knockdown morphant.
as §2
We used several antibodies to evaluate the effects of lumican knockdown and all can be obtained from different commercial supplies. Rabbit anti-TGFβ2, Rabbit anti-MMP-2, Goat anti-TIMP-2, Goat anti-Col1a1 (L-19) and Goat anti-PDI are obtained from Santa Cruz. Mouse anti-GAPDH is obtained from Abnova.

For CC(=O)Oc1ccccc1C(=O)O [Aspirin], the “outcome of the screen of about 30 drugs” value [1] was “effective candidate compounds” and the “% of scleral enlargement in experimental group” value (shortened to “% of scleral enlargement”) [1] was 9.6%.
With COc1ccccc1CNCCCCCCNCCCCCCCCNCCCCCCNCc1ccccc1OC [methoctramine] the “diameter of the scleral coat” value (zLum-MO-injected fish [2]) was “no obvious changes”, the excessive axial elongation (zLum-MO-injected fish [2]) was “no obvious changes” and the “ratio of RPE/scleral coat (%)” value (zLum-MO-injected fish [2]) was “no obvious changes”. For the same molecule, the “ocular enlargement (phenotype)” value (zLum-MO-injected fish [2]) was “no obvious changes in the phenotypes”.
In the case of CC(C)c1cccc(C(C)C)c1O [Propofol, 2,6-diisopropylphenol], the “outcome of the screen of about 30 drugs” value [1] is reported as “effective candidate compounds” and the “% of scleral enlargement” value [1] is reported as 12%.
For CN(C)c1ccc(O)c2c1C[C@H]1C[C@H]3[C@H](N(C)C)C(O)=C(C(N)=O)C(=O)[C@@]3(O)C(O)=C1C2=O [Minocycline hydrochloride], the “% of scleral enlargement” value [1] was 4.7%.
In the case of CNC(=O)[C@@H](NC(=O)[C@H](CC(C)C)[C@H](O)C(=O)NO)C(C)(C)C [Marimastat], the “outcome of the screen of about 30 drugs” value [1] is reported as “effective candidate compounds” and the “% of scleral enlargement” value [1] is reported as 2%.
For C[C@H]1c2cccc(O)c2C(=O)C2=C(O)[C@]3(O)C(=O)C(C(N)=O)=C(O)[C@@H](N(C)C)[C@@H]3[C@@H](O)[C@@H]21 [Doxycycline hyclate], the “% of scleral enlargement” value [1] was 6.8%.
For CN1CCN(CC(=O)N2c3ccccc3C(=O)Nc3cccnc32)CC1 [Pirenzepine dihydrochloride], the “diameter of the scleral coat” value (zLum-MO-injected fish [2]) was “Significant decreases”, the excessive axial elongation (zLum-MO-injected fish [2]) was “significant decreases” and the “ratio of RPE/scleral coat (%)” value (zLum-MO-injected fish [2]) was “attenuate the decreasing ratio”. For the same molecule, the “ocular enlargement (phenotype)” value (zLum-MO-injected fish [2]) was “decreases in ocular enlargement” and the “ocular enlargement caused by morpholinos” value (zLum-MO-injected fish [3]) was “effectively subdued the ocular enlargement”.
With CC(=O)N[C@@H](CS)C(=O)O [n-acetylcysteine] the “outcome of the screen of about 30 drugs” value [1] was “effective candidate compounds” and the “% of scleral enlargement” value [1] was 11.7%.
With CN1[C@@H]2CC[C@H]1C[C@@H](OC(=O)C(CO)c1ccccc1)C2 (some centres unmarked) [Atropine] the scleral coat enlargement (zLum-MO-injected fish [2]; lumican knockdown fish, administration of atropine, FIGS. 7 to 9) was “could be inhibited”, the “diameter of the scleral coat” value (zLum-MO-injected fish [2]) was “Significant decreases” and the excessive axial elongation (zLum-MO-injected fish [2]) was “significant decreases”. The “ratio of RPE/scleral coat (%)” value (zLum-MO-injected fish [2]) was “attenuate the decreasing ratio”, the “ocular enlargement (phenotype)” value (zLum-MO-injected fish [2]) was “significant decreases in ocular enlargement” and the “expression of MMP-2 and TIMP” value ([4]; lumican knockdown fish, atropine treatment) was “returned to the normal level”. The “expressions of lumican, collagen 1a1, TGF-beta, MMP2 and TIMP2 in lumican morphant” value ([4]; zLum knockdown morphant treated with atropine, FIG. 9) was “reverse the expressions” and the “ocular enlargement caused by morpholinos” value (zLum-MO-injected fish [3]) was “effectively subdued the ocular enlargement”.
With C[C@H](CS)C(=O)N1CCC[C@H]1C(=O)O [Captopril] the “outcome of the screen of about 30 drugs” value [1] was “effective candidate compounds”.
For CC(C)[N+]1(C)[C@@H]2CC[C@H]1CC(OC(=O)C(CO)c1ccccc1)C2.[Br-] (some centres unmarked) [Ipratropium bromide], the “Big eye rate(%)” value ([1]; lumican knockdown zebrafish, big eye = RPE/scleral coat axial length < 0.7, Conc.: Atropine 0.50%, Tropicamide 1 mM, Ipratropium 50 mM, Oxybutynin 2 uM, Scopolamine 100 uM, Pirenzepine 0.25%, SB 431542 25 uM, Tamoxifen 20 uM, Doxycycline 100 ppm, Genistein 25 uM, Marimastat 50 uM, Taurine 0.2M, Minocycline 50 uM, n-acetylcysteine 10 uM, Aspirin 50 mg/L, Propofol 0.5 mM, SP600125 2.5 uM, Zileuton 1) was 26.0%.
